The text below walks through data of patent US12122736B2, “Salty taste-enhancing agent and manufacturing method therefor, and salty taste-enhancing method” (NISSIN FOODS HOLDINGS CO., LTD., priority 2012, dated 2024).

Test [1] in a line: Sensory evaluation of salty taste-enhancing action in salt aqueous solution (Example 1). Conditions: 0.150 wt % evaluation sample and 0.700 wt % sodium chloride in distilled water; compared with 0.700-0.840 wt % saline. The method, then: The salty taste-enhancing action may be evaluated by a sensory test.
Each evaluation sample and sodium chloride (salt) were dissolved in distilled water to prepare an aqueous solution containing 0.150 wt % of the evaluation sample and 0.700 wt % of sodium chloride, which was used as an evaluation solution. In addition, solutions containing 0.700 wt %, 0.735 wt %, 0.770 wt %, 0.805 wt %, and 0.840% of sodium chloride were used as comparative objects.

Test [2] can be described thus: Sensory evaluation of relationship between addition concentration and salty taste-enhancing action (Example 2). Conditions: for Salty taste-enhancing effect: 0.700 wt % sodium chloride. The method, then: 3-Guanidino-1-propanol hydrochloride obtained in Synthesis Example 2 was evaluated for its relationship between an addition concentration and a salty taste-enhancing action.
3-Guanidino-1-propanol hydrochloride and sodium chloride (salt) were dissolved in distilled water to prepare an aqueous solution containing 1.5 ppm (0.00015 wt %), 15 ppm (0.0015 wt %), 150 ppm (0.015 wt %), or 1,500 ppm (0.15 wt %) of 3-guanidino-1-propanol hydrochloride and 0.700 wt % of sodium chloride, which was used as an evaluation solution. In addition, solutions containing 0.700 wt %, 0.735 wt %, 0.770 wt %, 0.805 wt %, and 0.840 wt % of sodium chloride were used as comparative objects.

Where only a bound is given, the exact number is not on record here.

`N=C(N)NCCCCCC(=O)O` [6-Guanidinocaproic acid]: in test [1], the Salty taste-enhancing effect result was “+ (exhibiting a salty taste equal to or stronger than that of 0.735 wt % saline (exhibiting a salty taste-enhancing effect of 5% or more))”.

On to `N=C(N)NCCCO` [Example 14], for which the Salty taste-enhancing effect entry in test [1] is reported as “++++ (exhibiting a salty taste equal to or stronger than that of 0.840 wt % saline (exhibiting a salty taste-enhancing effect of 20% or more))”.

Turning to `Cl.N=C(N)N` [Guanidine hydrochloride], the Salty taste-enhancing effect result in test [1] was “+++ (exhibiting a salty taste equal to or stronger than that of 0.805 wt % saline (exhibiting a salty taste-enhancing effect of 15% or more))”.

As for `Cl.N=C(N)NCCCO` [Synthesis Example 2, 3-Guanidino-1-propanol hydrochloride], in test [2] (0.700 wt % sodium chloride aqueous solution), the “addition concentration at which a salty taste-enhancing action was exhibited” value is ≥ 15 ppm. In addition, the Salty taste-enhancing effect entry in test [2] (addition concentration 1.5 ppm (0.00015%)) is recorded as “± (exhibiting a salty taste weaker than that of 0.735 wt % saline (exhibiting a salty taste-enhancing effect of less than 5%))”; in test [2] (addition concentration 15 ppm (0.0015%)) it was “+ (exhibiting a salty taste equal to or stronger than that of 0.735 wt % saline (exhibiting a salty taste-enhancing effect of 5% or more))”; in test [2] (addition concentration 150 ppm (0.015%)) it was “++ (exhibiting a salty taste equal to or stronger than that of 0.770 wt % saline (exhibiting a salty taste-enhancing effect of 10% or more))”; in test [2] (addition concentration 1,500 ppm (0.15%)), “++++ (exhibiting a salty taste equal to or stronger than that of 0.840 wt % saline (exhibiting a salty taste-enhancing effect of 20% or more))”.

Turning to `N=C(N)NCCC(=O)O` [β-Guanidinopropanoic acid], the Salty taste-enhancing effect result in test [1] was “++ (exhibiting a salty taste equal to or stronger than that of 0.770 wt % saline (exhibiting a salty taste-enhancing effect of 10% or more))”.
